Assay results as given in patent US10358409B2, “Low-toxicity olefinic ester compositions and methods of using the same” (Elevance Renewable Sciences, Inc., priority 2014, dated 2019).

Test system: leptocheirus plumolosus
Assay: Aquatic toxicity, EPA Test No. 1644, percent survival after 10 days of exposure
Type: in vivo
Description: The aquatic toxicity of three cyclohexyl esters were tested against three comparative compounds. Aqueous samples of the following solvents were prepared at concentrations of 3200 mg/kg: xylene (Sample 2A); methyl 9-dodecenoate (Sample 2B); methyl esters of a mixture of C13-15 olefinic acids (Sample 2C); cyclohexyl 9-decenoate (Sample 2D); cyclohexyl 9-dodecenoate (Sample 2E); and cyclohexyl esters of a mixture of C13-15 olefinic acids. Using United States Environmental Protection Agency (EPA) Test No. 1644, the toxicity of the aqueous compositions was measured as the percent survival of leptocheirus plumolosus after 10 days of exposure. Table 1 recites the survival rates for each of the above compositions.

[1] = Leptocheirus plumolosus, in vivo, 3200 mg/kg, 10 days

Compound | Survival Rate (%) [1] | Survival Rate (%) (aqueous samples of the solvent at 3200 mg/kg, percent survival of leptocheirus plumolosus after 10 days of exposure)
CCC=CCCCCCCCC(=O)OC [Sample 2B, methyl 9-dodecenoate] | 47% | –
C=CCCCCCCCC(=O)OC1CCCCC1 [Sample 2D, cyclohexyl 9-decenoate] | 57% | –
CCC=CCCCCCCCC(=O)OC1CCCCC1 [Sample 2E, cyclohexyl 9-dodecenoate] | 89% | –
xylene [Sample 2A] | – | 69%
